Measurements published in patent publication US20100075854A1, “HERBICIDE COMBINATION COMPRISING DIMETHOSXYTRIAZINYL-SUBSTITUTED DIFLUOROMETHANESULFONYLANILIDES” (Bayer CropScience AG, priority 2008, published 2010).
Read-outs that look alike come from different tables or passages of the source.

What was measured:
Assay in all cases: Post-emergence action, greenhouse pot test, visual scoring
Format in all cases: in vivo
[1] = tested on: Abuthilon theophrasti (ABUTH); details: Abutilon theophrasti, ABUTH, read-out: % activity found; for inhibition at 4 g/ha: 4 g of ai/ha; for inhibition at 12 g/ha: 12 g of ai/ha
Description: (§1) Seeds or rhizome pieces of mono- and dicotyledonous harmful and useful plants were placed in peat pots (diameter 4 cm) filled with sandy loam and then covered with soil. The pots were kept in a greenhouse under optimum conditions. In addition, harmful plants encountered in paddy rice cultivation were cultivated in pots with a water level 2 cm above the soil surface.
(§2) About three weeks after the start of the cultivation, the test plants were treated at the 2- to 3-leaf stage. The herbicides, formulated as powder or liquid concentrates, were, either alone or in the combinations according to the invention, sprayed in various dosages on to the green parts of the plants using an application rate of 600 l of water/ha (converted). For further cultivation of the plants, the pots were then again kept under optimum conditions in a greenhouse.
(§3) The visual scoring of the herbicidal effects was carried out in intervals up to 21 days after the treatment. Scoring was carried out in percent in comparison to the untreated control plants. 0%=no herbicidal activity, 100%=complete herbicidal activity=complete kill.
(§4) The percentages from the treatments with the herbicides alone (=individual application) and with the combinations according to the invention (=mixtures) were employed to calculate interactions using the method of Colby. When the observed efficacies of the mixtures exceed the formal sum of the values of the tests with individual applications, they also exceed the expected value according to Colby, which is calculated using the formula below (cf. S. R. Colby; in Weeds 15 (1967) pp. 20 to 22):
(§5) • A, B=activity of components A and B in percent at a dosage of a and b g of ai/ha (=gramm of active substance per hectare), respectively. • E=expected value in % at a dosage of a+b g of ai/ha.

[2] = tested on: Alopecurus myosuroides (ALOMY); details: 504 h, ALOMY, 21 DAT, read-out: % activity found
Description: as §1, §2, §3, §4, §5

[3] = tested on: Amaranthus retroflexus (AMARE); details: AMARE, read-out: % activity found; for inhibition at 12 g/ha: 12 g of ai/ha
Description: as §1, §2, §3, §4, §5

Avena fatua (AVEFA) = details: AVEFA, read-out: % activity found; for inhibition at 4 g/ha: 4 g of ai/ha; for inhibition at 12 g/ha: 12 g of ai/ha
Description: as §1, §2, §3, §4, §5

[4] = tested on: Cyperus esculentus (CYPES); details: CYPES, 21 DAT
Description: as §1, §2, §3, §4, §5

[5] = tested on: Fallopia (ex Polygonum) convolvulus (POLCO); details: POLCO, read-out: % activity found; for inhibition at 4 g/ha: 4 g of ai/ha; for inhibition at 12 g/ha: 12 g of ai/ha
Description: as §1, §2, §3, §4, §5

[6] = tested on: Lolium multiflorum (LOLMU); details: read-out: % activity found; for inhibition at 4 g/ha: 4 g of ai/ha; for inhibition at 12 g/ha: 12 g of ai/ha
Description: as §1, §2, §3, §4, §5

[7] = tested on: Matricaria inodora (MATIN); details: Tripleurospermum inodorum, MATIN, read-out: % activity found; for inhibition at 4 g/ha: 4 g of ai/ha
Description: as §1, §2, §3, §4, §5

Oryza sativa (ORYSA) = details: ORYSA, read-out: % activity found; for inhibition at 12 g/ha: 12 g of ai/ha
Description: as §1, §2, §3, §4, §5

[8] = tested on: Pharbitis purpurea (PHBPU); details: Ipomoea purpurea, PHBPU, read-out: % activity found; for inhibition at 4 g/ha: 4 g of ai/ha; for inhibition at 12 g/ha: 12 g of ai/ha
Description: as §1, §2, §3, §4, §5

[9] = tested on: Triticum aestivum (TRZAS); details: TRZAS, read-out: % activity found; for inhibition at 4 g/ha: 4 g of ai/ha; for inhibition at 12 g/ha: 12 g of ai/ha
Description: as §1, §2, §3, §4, §5

Veronica persica (VERPE) = details: VERPE, read-out: % activity found; for inhibition at 12 g/ha: 12 g of ai/ha
Description: as §1, §2, §3, §4, §5

Viola tricolor (VIOTR) = details: VIOTR, read-out: % activity found; for inhibition at 4 g/ha: 4 g of ai/ha; for inhibition at 12 g/ha: 12 g of ai/ha
Description: as §1, §2, §3, §4, §5

Zea mays (ZEAMX) = details: ZEAMX, read-out: % activity found; for inhibition at 4 g/ha: 4 g of ai/ha; for inhibition at 12 g/ha: 12 g of ai/ha
Description: as §1, §2, §3, §4, §5

SMILES: COc1nc(OC)nc(C(=O)c2cccc(F)c2N(C)S(=O)(=O)C(F)F)n1 [A-1]
- inhibition at 4 g/ha ([1]; 240 h, 10 DAT): 70%
- inhibition at 12 g/ha ([1]; 240 h, 10 DAT): 70%
- inhibition at 4 g/ha ([1]; 504 h, 21 DAT): 85%
- inhibition at 12 g/ha ([1]; 504 h, 21 DAT): 85%
- inhibition at 4 g/ha ([2]; 4 g of ai/ha): 40%
- inhibition at 12 g/ha ([2]; 12 g of ai/ha): 50%
- inhibition at 12 g/ha ([3]; 240 h, 10 DAT): 70%
- inhibition at 4 g/ha ([3]; 504 h, 21 DAT, 4 g of ai/ha): 70%
- inhibition at 12 g/ha ([3]; 504 h, 21 DAT): 75%
- inhibition at 4 g/ha (Avena fatua (AVEFA); 240 h, 10 DAT): 40%
- inhibition at 12 g/ha (Avena fatua (AVEFA); 240 h, 10 DAT): 50%
- inhibition at 4 g/ha (Avena fatua (AVEFA); 504 h, 21 DAT): 10%
- inhibition at 12 g/ha (Avena fatua (AVEFA); 504 h, 21 DAT): 30%
- (7) % activity found ([4]; (5) dose of A-1 4, alone): 80%
- (7) % activity found ([4]; (5) dose of A-1 12, alone): 80%
- inhibition at 4 g/ha ([4]; Cyperus esculentus, 504 h, 4 g of ai/ha, read-out: % activity found): 80%
- inhibition at 12 g/ha ([4]; Cyperus esculentus, 504 h, 12 g of ai/ha, read-out: % activity found): 80%
- inhibition at 4 g/ha ([5]; 240 h, 10 DAT): 70%
- inhibition at 12 g/ha ([5]; 240 h, 10 DAT): 70%
- inhibition at 4 g/ha ([5]; 504 h, 21 DAT): 75%
- inhibition at 12 g/ha ([5]; 504 h, 21 DAT): 70%
- inhibition at 4 g/ha ([6]; 240 h, 10 DAT): 0%
- inhibition at 12 g/ha ([6]; 240 h, 10 DAT): 10%
- inhibition at 4 g/ha ([6]; 504 h, 21 DAT): 0%
- inhibition at 12 g/ha ([6]; 504 h, 21 DAT): 10%
- inhibition at 4 g/ha ([7]; 240 h, 10 DAT): 60%
- inhibition at 4 g/ha ([7]; 504 h, 21 DAT): 50%
- inhibition at 12 g/ha ([7]; 504 h, 21 DAT, 12 g of ai/ha): 60%
- inhibition at 12 g/ha (Oryza sativa (ORYSA); 240 h, 10 DAT): 10%
- inhibition at 4 g/ha (Oryza sativa (ORYSA); 504 h, 21 DAT, 4 g of ai/ha): 0%
- inhibition at 12 g/ha (Oryza sativa (ORYSA); 504 h, 21 DAT): 10%
- inhibition at 4 g/ha ([8]; 240 h, 10 DAT): 60%
- inhibition at 12 g/ha ([8]; 240 h, 10 DAT): 60%
- inhibition at 4 g/ha ([8]; 504 h, 21 DAT): 60%
- inhibition at 12 g/ha ([8]; 504 h, 21 DAT): 65%
- inhibition at 4 g/ha ([9]; 240 h, 10 DAT): 0%
- inhibition at 12 g/ha ([9]; 240 h, 10 DAT): 0%
- inhibition at 4 g/ha ([9]; 504 h, 21 DAT): 0%
- inhibition at 12 g/ha ([9]; 504 h, 21 DAT): 0%
- inhibition at 12 g/ha (Veronica persica (VERPE); 240 h, 10 DAT): 60%
- inhibition at 4 g/ha (Veronica persica (VERPE); 504 h, 21 DAT, 4 g of ai/ha): 30%
- inhibition at 12 g/ha (Veronica persica (VERPE); 504 h, 21 DAT): 40%
- inhibition at 4 g/ha (Viola tricolor (VIOTR); 240 h, 10 DAT): 20%
- inhibition at 12 g/ha (Viola tricolor (VIOTR); 240 h, 10 DAT): 20%
- inhibition at 4 g/ha (Viola tricolor (VIOTR); 504 h, 21 DAT): 0%
- inhibition at 12 g/ha (Viola tricolor (VIOTR); 504 h, 21 DAT): 10%
- inhibition at 4 g/ha (Zea mays (ZEAMX); 240 h, 10 DAT): 0%
- inhibition at 12 g/ha (Zea mays (ZEAMX); 240 h, 10 DAT): 0%
- inhibition at 4 g/ha (Zea mays (ZEAMX); 504 h, 21 DAT): 0%
- inhibition at 12 g/ha (Zea mays (ZEAMX); 504 h, 21 DAT): 0%
